Results on two compounds are retold here after US8551721B2, “Bioluminescent detection of cyanohydroxy benzothiazole compounds” (Promega Corporation, priority 2008, dated 2013).

What all share (format): biochemical
Common to all, as to conditions: 2 hour incubation at 37° C., plus vs minus UDPGA

Test [1] addresses T1, UGT 1A6 (Homo sapiens, UniProt P19224).
T1 construct: purchased BD Gentest; host or cells: insect cells (microsomes)
T1 sequence (P19224 27-532): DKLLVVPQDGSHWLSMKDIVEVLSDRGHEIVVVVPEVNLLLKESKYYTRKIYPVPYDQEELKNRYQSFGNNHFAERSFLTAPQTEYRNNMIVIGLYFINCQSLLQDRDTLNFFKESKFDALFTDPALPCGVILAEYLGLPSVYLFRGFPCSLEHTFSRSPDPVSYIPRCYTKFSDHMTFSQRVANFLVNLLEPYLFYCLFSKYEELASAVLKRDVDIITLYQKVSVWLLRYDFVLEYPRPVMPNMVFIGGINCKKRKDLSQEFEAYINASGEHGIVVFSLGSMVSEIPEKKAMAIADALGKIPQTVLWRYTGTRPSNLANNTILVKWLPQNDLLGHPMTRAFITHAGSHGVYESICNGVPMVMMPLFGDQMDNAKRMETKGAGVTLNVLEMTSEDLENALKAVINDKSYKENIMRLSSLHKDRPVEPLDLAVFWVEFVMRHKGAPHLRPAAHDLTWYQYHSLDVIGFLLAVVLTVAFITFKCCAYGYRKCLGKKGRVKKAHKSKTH
Briefly: UGT activity: utilization of substrate by recombinant UGT 1A6 Supersomes. Here is the method: (§1) The invention includes a method of determining activity of the uridine 5′-diphospho-glucuronosyltransferase (UDP-glucuronosyltransferase, or UGT) family enzymes in vitro. Briefly, UGT enzymes from overexpressed insect microsomes (Supersomes™, BD Gentest™) or animal tissue microsomes (Xenotech, BD Gentest™) were incubated with a cyanobenzothiazole substrate of the invention and the cofactor UDP-glucuronic acid (UDPGA) at 37° C. in buffer at physiological pH containing MgCl2 and alamethicin (typically, 50 mM TES, pH 7.5, 8 mM MgCl2, 4 mM UDPGA (Sigma) and 25 μg/mL alamethicin (Sigma)). Following the UGT enzyme reaction, an equal volume of P450-Glo Luciferin Detection Reagent (Promega) containing 15-30 mM D-cysteine-HCl.H2O (Sigma) was added and the plate was mixed and incubated at room temperature, typically for 20-30 minutes. […]
(§2) During this incubation, the cysteine reacts with the cyanobenzathiozole substrate to yield a D-luciferin derivative. […] Therefore, activity of the UGT enzyme can be measured by analyzing the difference (lower or no output) in relative light units (RLU) of a sample in which glucuronidation occurs compared to a sample that was run under the same conditions with no added UDPGA cofactor. […]
(§3) Reactions were assembled in a white 96-well plate. […] After the incubation was completed, the plate was read on a Veritas™ luminometer (Turner BioSystems, Inc.; Sunnyvale, Calif.). […]

Test [2] concerns the target T2, UGT 1A7 (Homo sapiens, UniProt Q9HAW7).
T2 construct: purchased BD Gentest; host or cells: insect cells (microsomes)
T2 sequence (Q9HAW7 26-530): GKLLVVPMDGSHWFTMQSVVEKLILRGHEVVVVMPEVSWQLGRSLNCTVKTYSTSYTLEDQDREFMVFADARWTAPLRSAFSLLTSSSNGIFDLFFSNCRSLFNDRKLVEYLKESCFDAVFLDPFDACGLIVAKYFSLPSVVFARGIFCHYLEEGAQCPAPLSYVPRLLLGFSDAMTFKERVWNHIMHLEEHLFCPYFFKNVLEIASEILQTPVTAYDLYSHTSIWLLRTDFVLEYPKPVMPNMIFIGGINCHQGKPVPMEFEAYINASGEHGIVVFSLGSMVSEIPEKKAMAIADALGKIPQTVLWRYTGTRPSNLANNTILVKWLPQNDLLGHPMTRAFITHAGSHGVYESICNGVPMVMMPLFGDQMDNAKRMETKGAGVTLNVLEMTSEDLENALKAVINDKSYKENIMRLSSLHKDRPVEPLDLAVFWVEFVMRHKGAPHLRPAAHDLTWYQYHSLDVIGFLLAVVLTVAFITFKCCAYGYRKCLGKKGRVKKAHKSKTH
As to the kind of experiment: UGT activity: utilization of substrate by recombinant UGT 1A7 Supersomes. Here is the method: as §1, §2, §3

The target of test [3] is T3, UGT 2B4 (Homo sapiens, UniProt P06133).
T3 construct: purchased BD Gentest; host or cells: insect cells (microsomes)
T3 sequence (P06133 24-528): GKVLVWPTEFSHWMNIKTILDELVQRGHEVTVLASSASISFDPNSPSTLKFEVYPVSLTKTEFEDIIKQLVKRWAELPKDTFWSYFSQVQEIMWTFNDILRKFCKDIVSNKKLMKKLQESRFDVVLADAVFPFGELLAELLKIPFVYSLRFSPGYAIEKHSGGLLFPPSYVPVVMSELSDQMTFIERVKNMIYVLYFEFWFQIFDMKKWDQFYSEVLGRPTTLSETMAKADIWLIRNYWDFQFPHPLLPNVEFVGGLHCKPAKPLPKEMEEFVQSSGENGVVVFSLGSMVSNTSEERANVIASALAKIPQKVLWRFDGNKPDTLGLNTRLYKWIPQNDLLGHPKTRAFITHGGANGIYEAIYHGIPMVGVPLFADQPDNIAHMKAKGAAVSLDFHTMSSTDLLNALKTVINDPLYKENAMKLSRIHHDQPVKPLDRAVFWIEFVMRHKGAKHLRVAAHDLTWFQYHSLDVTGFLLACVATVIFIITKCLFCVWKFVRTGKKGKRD
Briefly: UGT activity: utilization of substrate by recombinant UGT 2B4 Supersomes. Here is the method: as §1, §2, §3

For the compound `Cc1cc(O)cc2sc(C3=NC(C(=O)O)CS3)nc12` (stereo not drawn) [compound 3478], the “utilization by UGT 1A6 (in words)” value in test [1] is given as “only UGT 1A6 was able to utilize compound 3478 to any appreciable extent”. Also, the “utilization by UGT 1A7 (in words)” value in test [2] is reported as “only UGT 1A6 was able to utilize compound 3478 to any appreciable extent”. In addition, the “utilization by UGT 2B4 (in words)” value in test [3] was “did not utilize either compound 3138 or 3478 to an appreciable extent”.
In the case of `Cc1cc(O)cc2sc(C#N)nc12` [compound 3138], the “utilization by UGT 1A6 (in words)” value in test [1] was “detectable levels of utilization above background”. Besides, the “utilization by UGT 1A7 (in words)” value in test [2] was “detectable levels of utilization above background”. Further, the “utilization by UGT 2B4 (in words)” value in test [3] was “did not utilize either compound 3138 or 3478 to an appreciable extent”.
